The subject of series [1] is Vero cells.
Series [2] has as its target SARS-CoV-2 M^pro (Severe acute respiratory syndrome coronavirus 2, UniProt P0DTD1). The experiment in a line: biochemical.
Where [3] appears, read: Table S2, PL^pro inhibitors, same inhibitor concentration.
Where [4] appears, read: Table S1, M^pro inhibitors, same inhibitor concentration (10 µg/mL).
Setting [5] is: read-out: IC50 / inhibitory activity against M^pro.
[6] abbreviates: Table S3, representative dual inhibitors, read-out: IC50 for M^pro.
[7] abbreviates: Table S1, M^pro inhibitors, 40 nmol/L enzyme, 20 µmol/L substrate, read-out: IC50.

Molecules are shown by their SMILES. Read-outs that look alike come from different tables or passages of the source.

Turning to `CCC(C(=O)NCc1ccco1)n1c(Cc2c(Cl)cccc2Cl)nc2ccccc21` (stereo not shown) [CD3226-D010], the “Cytotoxicity activity (%)” value in series [1] (setting [3]) is -22.39%.
As for `CC(C(=O)NCc1ccco1)n1c(Cc2c(Cl)cccc2Cl)nc2ccccc21` (stereo not shown) [CD3531-C011], the “Cytotoxicity activity (%)” value in series [1] (setting [3]) is given as -14.28%.
`COc1ccc(CN2C(=O)NC(=O)/C(=C\c3ccco3)C2=O)cc1` [CDE0972-G011]: the “Cytotoxicity activity (%)” value in series [1] (setting [4]) is reported as -7.84%. Moreover, the values for the IC50 in series [2] (read-out: IC50 (μM) at S/KM 1), in series [2] (read-out: IC50 (μM) at S/KM 1/2) and in series [2] (read-out: IC50 (μM) at S/KM 2) were 2.86 ± 0.53 µM, 2.17 ± 0.2 µM and 3.5 ± 0.42 µM, respectively.
As to `O=C(NCc1n[nH]c(=S)n1-c1ccc(Br)cc1)c1ccc(Cl)cc1Cl` [JK0108-D008], in series [1] (setting [3]), the “Cytotoxicity activity (%)” value was -8.62%. In addition, the figures for the IC50 in series [2] (IC50 (μM) at S/KM 1), in series [2] (IC50 (μM) at S/KM 2) and in series [2] (setting [5]) were 4.37 ± 0.84 µM, 5.83 ± 1.68 µM and 0.5 µM, respectively.
For the compound `CCOc1cc(C(=O)NCc2n[nH]c(=S)n2-c2ccc(Br)cc2)cc(OCC)c1OCC` [JK0109-B004], the “Cytotoxicity activity (%)” value in series [1] (setting [3]) was -7.5%. For the same compound, the IC50 in series [2] (IC50 (μM) at S/KM 1) was determined as 1.62 ± 0.24 µM; in series [2] (IC50 (μM) at S/KM 1/2) it was 1.01 ± 0.25 µM; in series [2] (IC50 (μM) at S/KM 2), 2.17 ± 0.27 µM; in series [2] (setting [6]), 9.7 ± 0.1 µM.
For `COc1ccc(-n2c(CNC(=O)COc3ccc(Cl)cc3Cl)n[nH]c2=S)cc1` [JK0109-B011], the “Cytotoxicity activity (%)” value in series [1] (setting [3]) is recorded as -7.31%. For the same compound, the IC50 in series [2] (IC50 (μM) at S/KM 1) came to 1.53 ± 0.58 µM; in series [2] (IC50 (μM) at S/KM 1/2), 1.33 ± 0.26 µM; in series [2] (setting [6]), 21.8 ± 0.3 µM.
Turning to `COc1ccc(-n2c(S)nnc2CNC(=O)c2cc(OC)c(OC)c(OC)c2)cc1` [JK0109-C011], the “Cytotoxicity activity (%)” value in series [1] (setting [3]) was -9.42%. Also, the IC50 amounted to 16.1 ± 3.07 µM in series [2] (IC50 (μM) at S/KM 1), 2.3 ± 0.96 µM in series [2] (IC50 (μM) at S/KM 1/2) and 42.8 ± 1.7 µM in series [2] (setting [6]).
For `O=C(COc1ccc(Cl)cc1)NCc1n[nH]c(=S)n1-c1ccc(Br)cc1` [JK0109-H005], the “Cytotoxicity activity (%)” value in series [1] (setting [3]) is -4.08%. Also, in series [2], the “IC50 (μM) at S/KM 1” value was 4.17 ± 1.29 µM. For the same compound, the IC50 in series [2] (IC50 (μM) at S/KM 1/2) is 1.33 ± 0.28 µM; in series [2] (IC50 (μM) at S/KM 2) it was 3.36 ± 0.47 µM; in series [2] (setting [6]), 4.2 ± 0.7 µM.
On to `O=c1sc2ccccc2n1Cc1n[nH]c(=S)n1-c1ccccc1` [JK0946-F007], for which the “Cytotoxicity activity (%)” value in series [1] (setting [3]) was -4.63%. For the same compound, the IC50 came to 9.67 ± 3.64 µM in series [2] (IC50 (μM) at S/KM 1); 3.56 ± 0.62 µM in series [2] (IC50 (μM) at S/KM 1/2); 8.97 ± 2.32 µM in series [2] (IC50 (μM) at S/KM 2); 8.7 ± 0.9 µM in series [2] (setting [6]); 4.2 ± 0.6 µM in series [2] (setting [5]).
Consider `COc1ccc(-n2c(S)nnc2CNc2ccc(C)cc2)cc1` [RUS0105-C005], for which the “Cytotoxicity activity (%)” value in series [1] (setting [4]) was determined as 5.87%. For the same compound, the IC50 in series [2] (setting [7]) amounted to 0.478 ± 0.009 µM.
Take `O=C1NC(=O)C(=Cc2ccc(-c3cccc(Cl)c3)o2)C(=O)N1` [RUS0245-E010]: the “Cytotoxicity activity (%)” value in series [1] (setting [4]) is reported as -8.14%. Also, the IC50 came out at 0.25 ± 0.04 µM in series [2] (IC50 (μM) at S/KM 1), 0.34 ± 0.04 µM in series [2] (IC50 (μM) at S/KM 1/2), 0.34 ± 0.09 µM in series [2] (IC50 (μM) at S/KM 2) and 0.196 ± 0.009 µM in series [2] (setting [7]).
On to `O=C(Oc1cncc(Cl)c1)c1sccc1Cl` [WNN2048-F004], for which, in series [1] (setting [4]), the “Cytotoxicity activity (%)” value is listed as 6.16%. Besides, the cytotoxicity effect result in series [1] (in words) is on record as “without cytotoxicity effect”. For the same compound, the “dependence of apparent IC50 on substrate concentration” value in series [2] was “consistent IC50 that is not affected by substrate concentration”. Also, the IC50 was 0.35 ± 0.11 µM in series [2] (IC50 (μM) at S/KM 1); 0.33 ± 0.07 µM in series [2] (IC50 (μM) at S/KM 2); 0.131 ± 0.011 µM in series [2] (setting [7]); 0.103 ± 0.0052 µM in series [2] (running text and Figure 4A, read-out: IC50 against M^pro).
Regarding `Cc1ccc(NCc2n[nH]c(=S)n2-c2ccccc2)cc1` [WNN2867-E005], the “Cytotoxicity activity (%)” value in series [1] (setting [4]) is reported as -6.94%. Further, the IC50 in series [2] (setting [7]) amounted to 0.466 ± 0.101 µM.
Regarding `O=C1NC(=O)N(Cc2ccccc2)C(=O)C1=Cc1ccco1` [WNN3797-H008], in series [1] (setting [4]), the “Cytotoxicity activity (%)” value is recorded as -7.75%. Besides, the IC50 in series [2] (IC50 (μM) at S/KM 1/2) was determined as 0.67 ± 0.28 µM; in series [2] (IC50 (μM) at S/KM 2), 0.55 ± 0.02 µM; in series [2] (setting [7]), 0.172 µM.
Regarding `O=C1NC(=O)C(=Cc2ccc(-c3cccc(C(F)(F)F)c3)o2)C(=O)N1` [WNN3953-B007], the “Cytotoxicity activity (%)” value in series [1] (setting [4]) amounted to 13.01%. Moreover, the IC50 in series [2] (IC50 (μM) at S/KM 1) is 0.77 ± 0.14 µM; in series [2] (IC50 (μM) at S/KM 2) it was 0.53 ± 0.1 µM; in series [2] (setting [7]) it was 0.16 ± 0.009 µM.
On to `O=C1NC(=O)C(=Cc2ccc(-c3cccc(Cl)c3Cl)o2)C(=O)N1` [WNN3989-H007], for which the “Cytotoxicity activity (%)” value in series [1] (setting [4]) is reported as -4.89%. Besides, the IC50 in series [2] (IC50 (μM) at S/KM 1/2) was 0.11 ± 0.01 µM; in series [2] (setting [7]), 0.552 ± 0.12 µM.
